These results are taken from patent US9493500B2, “Fluorinated pyrimidine analogs and methods of use thereof” (priority 2012, dated 2016).

Molecules are shown by their SMILES. Read-outs that look alike come from different tables or passages of the source.

The subject of series [1] is myelodysplatic syndrome (MDS). Conditions: treated patients with MDS; cited from earlier work.
The test system of series [2] is various tumor cells lines, both solid and hematologic. The settings on record: available data; cited from earlier work.
A further series addresses cytidine deaminase (Homo sapiens, UniProt P32320). Conditions: deamination of the base to inactive uracil; cited from earlier work.
For series [3] the following is noted: following subcutaneous administration; cited from earlier work.
Series [4] deals with various tumor cells lines, both solid and hematologic. The series is described as follows: Cytotoxicity against various tumor cell lines (overall comparison). In kind it is cell-based.
Series [5] deals with DNA methyltransferase (DNMT). The series is described as follows: In vitro DNA methyltransferase inhibition in HCT-116 cells (EpiQuick kit). Format: cell-based. The procedure:
The assay was performed using the EpiQuick DNA Methyltransferase Activity/Inhibition Assay Kit (Epigentek, Brooklyn, N.Y.). The […] cells were incubated with 1 μM and 10 μM concentrations of each drug for a period of 24 hours.

The next series has as its system NCI-H460. The series is described as follows: In vitro cytotoxicity (GI50), non-small cell lung cell line. Format: cell-based. As to the method: (§1) The in vitro cytotoxicity was measured in the following cell lines: NCI-H460 (ATCC #HTB-177) (non-small cell lung), HCT-116 (ATCC #CCL-247) (colorectal), HL-60 (ATCC #CCL-240) (leukemia), and MDA-MB-231 (ATCC #HTB-26) (breast).

Another series concerns HCT-116. The series is described as follows: In vitro cytotoxicity (GI50), colon/colorectal cell line. In kind it is cell-based. As to the method:
as §1

The test system of a further series is MDA-MB-231. The series is described as follows: In vitro cytotoxicity (GI50), breast cancer cell line. In kind it is cell-based. As to the method: as §1
Series [6] concerns L1210. Description: In vitro cytotoxicity, leukemia cell line L1210. Conditions: read-out: In vitro cytotoxicity, Leukemia L1210; Table 3.
Series [7] has as its system L1210.

Chain of cytidine deaminase (P32320 whole entry, species assumed): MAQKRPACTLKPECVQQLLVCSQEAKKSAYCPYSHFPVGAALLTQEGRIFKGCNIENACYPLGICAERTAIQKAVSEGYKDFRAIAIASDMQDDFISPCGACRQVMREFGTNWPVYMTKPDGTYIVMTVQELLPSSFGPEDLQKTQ

In the case of `Nc1ncn([C@@H]2O[C@H](CO)[C@@H](O)[C@H]2O)c(=O)n1` [Azacytidine, 5-azacytidine], the “Remissions or clinical improvements” value in series [1] was “remissions or clinical improvements in more than half of the treated patients”.
On to `NC1=NC(=O)N([C@H]2C[C@H](O)[C@@H](CO)O2)CN1` [DHADC, 5,6-dihydro-5-aza-2′-deoxycytidine], for which the “Cytotoxicity compared to decitabine” value in series [2] is reported as “lesser cytotoxicity”.
For `Nc1ncn([C@H]2C[C@H](O)[C@@H](CO)O2)c(=O)n1` [Decitabine, 5-azadeoxycytidine], the “Substrate for cytidine deaminase” value on cytidine deaminase is “good substrates for cytidine deaminase”. Also, in series [3], the Half-life was 30 min. The “Remissions or clinical improvements” value in series [1] was “remissions or clinical improvements in more than half of the treated patients”.
Take `Nc1ncn([C@@H]2O[C@H](CO)[C@@H](O)C2(F)F)c(=O)n1` [NUC013, 2′,2′-difluoro-5-azadeoxycytidine]: the “Cytotoxicity profile (in words)” value in series [4] is “active against cell lines that are resistant to decitabine”. In series [5], the “DNA methyltransferase inhibition (conclusion in words)” value is “is an inhibitor of DNA methyltransferase”.
`NC1=NC(=O)N([C@@H]2O[C@H](CO)[C@@H](O)C2(F)F)CN1` [NUC014, 2′,2′-difluoro-5,6-dihydro-5-azadeoxycytidine]: the “Cytotoxicity profile (in words)” value in [4] is “less cytotoxic than NUC013”.
As to `O=c1ncccn1[C@@H]1O[C@H](CO)[C@@H](O)C1(F)F` [NUC019, 2′-deoxy-2′,2′-difluorozebularine], the IC50 was found to be 136 µM in the series on NCI-H460 (Table 3, read-out: In vitro cytotoxicity, NSCL NCI-H460); 310 µM with HCT-116 (Table 3, read-out: In vitro cytotoxicity, Colon HCT-116); 166 µM with MDA-MB-231 (Table 3, read-out: In vitro cytotoxicity, Breast MDA-MB-231); 321 µM in the series on L1210 [6].
As to `O=c1ncccn1[C@H]1O[C@H](CO)[C@@H](O)C1(F)F` [NUC020], the IC50 in the series with NCI-H460 stood at 136 µM; in the series on L1210 [7], 346 µM; in the series on HCT-116 it was 279 µM; with MDA-MB-231, 213 µM.
